Measurements taken from EP1245247A1, “Biocidal locks” (Biolink Corporation, priority 2001, dated 2002).

Legend:
[1] = test system: S. epidermis; settings: cited from earlier work
[2] = test system: blood; experiment: Clotting of pig blood collected into containers holding taurolidine solution (Example 1); settings: pig blood filled up to the 30 mL level; inspected after 30 minutes
Protocol: A 0.5% solution of taurolidine in Ringer-lactate solution (Thomae, Biberach, Germany) was introduced into each of four polyethylene bottles having a 30 mL volume. Filling volumes were 5, 10, and 15 mL. One bottle was filled with 5 mL of the taurolidine solution and 2 mL ACD-A (Fresenius, Bad Homburg, Germany) solution. ACD-A solution is used for the conservation of whole blood and contains per liter: 22.0 grams of sodium citrate dihydrate, 7.3 grams of citric acid and 34.5 grams of glucose monohydrate.
Blood was collected at a slaughter house from a female pig directly from the slaughter wound into the containers that were then filled up to the 30 mL level. The containers were capped and gently moved to mix blood with the solution. The containers were inspected after 30 minutes. Blood in the containers containing only taurolidine was clotted, but the blood in the container containing the mixture of taurolidine and ACD-A was not clotted.

[3] = mice; cited from earlier work
[4] = test system: E. coli; settings: intravenous 0.2 mL of a 20% solution in sterile 5% polyvinyl pyrrolidone; intraperitoneal E. coli; cited from earlier work
[5] = test system: B. fragilis; settings: intravenous 0.2 mL of a 20% solution in sterile 5% polyvinyl pyrrolidone; intraperitoneal B. fragilis; cited from earlier work
[6] = test system: Vancomycin-Intermediate Susceptibility Staphylococcus Aureus (VISA) and Methicillin-Resistant Staphylococcus Aureus (MRSA); settings: range pH 7.0 to pH 5.0; cited from earlier work
[7] = mouse, in vivo; cited from earlier work

## CN[C@H](CC(C)C)C(=O)N[C@H]1C(=O)N[C@@H](CC(N)=O)C(=O)N[C@H]2C(=O)N[C@H]3C(=O)N[C@H](C(=O)N[C@H](C(=O)O)c4cc(O)cc(O)c4-c4cc3ccc4O)[C@H](O)c3ccc(c(Cl)c3)Oc3cc2cc(c3O[C@@H]2O[C@H](CO)[C@@H](O)[C@H](O)[C@H]2O[C@H]2C[C@](C)(N)[C@H](O)[C@H](C)O2)Oc2ccc(cc2Cl)[C@H]1O [Vancomycin]
[1]; initial inocula of 10^3 CFU/mL
  bactericidal dose: 6.7 µg/mL

## O=C([O-])CN(CCN(CC(=O)[O-])CC(=O)O)CC(=O)O.[Na+].[Na+] [disodium EDTA]
[1]; initial inoculum of 10^3 CFU of staphylococci per mL, in 24 hours
  bactericidal concentration: 20 mg/mL

## O=S1(=O)CCN(CN2CCS(=O)(=O)NC2)CN1 [taurolidine, bis-(1,1-dioxo-perhydroxy-1,2,4-thiadiazin-4-yl)methane]
[2]
  Blood clotting in the containers: clotted
[3]
  intraperitoneal LD50: ~1500 mg/kg
[4]
  mortality rate: very significantly reduce the mortality rate
[5]
  mortality rate: very significantly reduce the mortality rate
[6]
  dependence of activity on pH: activity increases with decreasing pH
[7]
  teratogenicity: non-teratogenic
